Converted amounts (≈) assume the structure as drawn.
What was measured:
Format in all cases: cell-based
[1] = tested on: Sclerotinia sclerotiorum (sensitive, wild-type); experiment: Activity against Sclerotinia sclerotiorum in tissue culture plate assay with mycelial plugs, wild type; conditions: 168 h, % growth after 7 days at 18° C., read-out: Absolute IC50, wild type
Protocol: Fungal strains used: • a) Sclerotinia sclerotiorum (sensitive, wild-type) • b) Mutants of Sclerotinia sclerotiorum
Pure cultures are grown on DOB-agar medium, (3.4 g/l YNB (Becton Dickinson), 10 g/l Ammoniumsulfat, 40 g/l Glucose) for 5-7 days at 18° C. Mycelial plugs (6 mm diame-ter) taken from the margin of the colonies are used as inoculum for the sensitivity test. 500 μl fungicide-amended DOB medium (3.4 g/l YNB (Becton Dickinson), 10 g/l Ammoniumsulfat, 40 g/l Glucose, adjusted to pH 7) are added to each well of 24-well tissue culture plates. Each well is then inoculated with a mycelial plug, with the myce-lium surface up. Two replicate wells are used for each isolate and fungicide concentration. Growth is assed after 7 days incubation at 18° C. in the dark by estimating % growth in the well. IC50-values (concentration of test compound resulting in 50% inhibition of fungal growth) were calculated from the resulting dose-response for each compound and strain.

[2] = tested on: Botrytis cinerea mutant V195F; experiment: Activity against Botrytis cinerea in the microtiter test, mutant V195F; conditions: Botrytis cinerea, MUTANTV195F, 168 h, read-out: Absolute IC50, V195F, Botrytis cinerea mutant V195F; turbidity at 620 nm after 7 days
Text: (§1) The active substances were formulated separately as a stock solution in dimethyl sulfoxide (DMSO) at a concentration of 10 000 ppm.
(§2) Spontaneous mutants were selected by plating out B. cinerea spores (in the range of 10^7-10^8) on DOB agar plates (3.4 g/l YNB (Becton Dickinson), 10 g/l Ammoniumsulfat, 40 g/l Glucose, 20 g/l Agar), amended with different lethal concentrations of active ingredient. After 7-14 days growing colonies were transferred to DOB agar plates, amended with the same lethal concentrations of active ingredient and then further propagated on Oatmeal agar medium (50 g/l Oatmeal agar (Sigma), 15 g/l Agar (Difco) for sensitivity testing.
(§3) Fungal strains used: • a) Botrytis cinerea (sensitive, wild-type) • b) Various mutants of Botrytis cinerea
(§4) The spores of Botrytis cinerea were harvested with a cotton swab from an Oatmeal agar plate (50 g/l Oatmealagar (Sigma, Art.O-3506), 15 g/l agar, (Difco) and this is dipped in 3 ml of double concentrated DOB-medium (3.4 g/l YNB (Becton Dickinson), 10 g/l Ammoniumsulfat, 40 g/l Glucose, adjusted to pH 7) and the spore suspension is adjusted to a spore density of 3.2×10^4 spores/ml. The compound solutions were diluted from stock solution in (dimethylsulfoxide) DMSO in several steps with sterile deionized water before use. High test concentrations were 50 mg/L (ppm) or 31 mg/L (ppm). Compound solutions were transferred into empty microplates and filled up with an equal amount of spore suspension.
(§5) The antifungal activity was determined by measuring the turbidity of a culture in 96-well microplates in the presence of test compounds after 7 days incubation at 620 nm. A blank value for each concentration (growth media+compound, without spores) are subtracted from the spore suspension. The relative antifungal activity was calculated by comparing the effect of the test compounds with the effect of a DMSO control The results are shown in Table IV (for compounds of general formula I.A), VI (for compounds of general formula I.B), and VIII (for compounds of general formula I.C).
(§6) A compound showing an IC50 (MUT) above the IC50 (WT) and showing an IC50 (MUT) to IC50 (WT) ratio being in a range above 100 is considered unsuitable (“I”) as DHODH inhibitor.
(§7) The absolute IC50-values (concentration of test compound resulting in 50% inhibition of fungal growth) were calculated from the resulting dose-response for each compound and strain.

[3] = tested on: Botrytis cinerea mutant G111E; experiment: Activity against Botrytis cinerea in the microtiter test, mutant G111E; conditions: Botrytis cinerea, MUTANTG111E, 168 h, read-out: Absolute IC50, G111E, Botrytis cinerea mutant G111E; turbidity at 620 nm after 7 days
Text: as §1, §2, §3, §4, §5, §6, §7

[4] = tested on: Botrytis cinerea mutant G111V; experiment: Activity against Botrytis cinerea in the microtiter test, mutant G111V; conditions: Botrytis cinerea, MUTANTG111V, 168 h, read-out: Absolute IC50, G111V, Botrytis cinerea mutant G111V; turbidity at 620 nm after 7 days
Text: as §1, §2, §3, §4, §5, §6, §7

[5] = tested on: Botrytis cinerea mutant H108P; experiment: Activity against Botrytis cinerea in the microtiter test, mutant H108P; conditions: Botrytis cinerea, MUTANTH108P, 168 h, read-out: Absolute IC50, H108P, Botrytis cinerea mutant H108P; turbidity at 620 nm after 7 days
Text: as §1, §2, §3, §4, §5, §6, §7

[6] = tested on: Botrytis cinerea (sensitive, wild-type); experiment: Activity against Botrytis cinerea in the microtiter test, wild type; conditions: 168 h, turbidity at 620 nm after 7 days, read-out: Absolute IC50, wild type
Protocol: as §1, §3, §4, §5, §7

[7] = tested on: Botrytis cinerea mutant Y208H; experiment: Activity against Botrytis cinerea in the microtiter test, mutant Y208H; conditions: Botrytis cinerea, MUTANTY208H, 168 h, read-out: Absolute IC50, Y208H, Botrytis cinerea mutant Y208H; turbidity at 620 nm after 7 days
Text: as §1, §2, §3, §4, §5, §6, §7

Compound | IC50 [1] [µg/mL] | IC50 [2] [µg/mL] | IC50 [3] [µg/mL] | IC50 [4] [µg/mL] | IC50 [5] [µg/mL] | IC50 [6] [µg/mL] | IC50 [7] [µg/mL]
Cc1cc(C2=NC(C)(C(C)(C)C)Oc3ccccc32)cnc1C(F)F (stereo not shown) [Ex-3] | 0.893 (≈ 2.59 µM) | 0.75 (≈ 2.18 µM) | 2.81 (≈ 8.16 µM) | 3.17 (≈ 9.2 µM) | 2.54 (≈ 7.38 µM) | 0.19 (≈ 0.552 µM) | 
COc1ccc2c(c1)OC(C)(C)N=C2c1cnc(C(F)F)c(C)c1 [Ex-35] | 0.468 (≈ 1.41 µM) | 0.05 (≈ 0.15 µM) | 2.7 (≈ 8.12 µM) | 0.72 (≈ 2.17 µM) | 0.29 (≈ 0.873 µM) | 0.02 (≈ 0.0602 µM) | 2.02 (≈ 6.08 µM)
